Consider 6 molecules from paper PMC11005040, “Photoactivatable Ruthenium Complexes Containing Minimal Straining Benzothiazolyl-1,2,3-triazole Chelators for Cancer Treatment” (Inorganic Chemistry, 2024).

Like-named read-outs stand apart in the source and are kept apart here.

The test system of one data set is CHO cells. Description: Dark cytotoxic screening, MTT test, 48 h. It counts as cell-based. The settings on record: 48 h in the dark. As to the method: (§1) For dark cytotoxic screening, A2780, CHO, HeLa, and A375 cells were cultured in 96-well plates at a density of 5 × 10^3 cells/well in complete medium and incubated for 24 h at 310 K and 5% CO2 in a humidified incubator. Serial dilutions of tested compounds in cell culture media were then added at final concentrations in the range of 0 to 100 μM in a final volume of 100 μL/well (%v/v DMSO below 0.4%) for 48 h prior to MTT test. For photoactivation studies, HeLa and A375 cells were used. Treatments were added at final concentrations in the range of 0 to 500 μM. After 1 h incubation with the compounds, light irradiation treatments were applied using a LED photoreactor (Luzchem; Canada) fitted with LED lamps centered at 465 nm (final intensity 4 mW/cm^2) for 1 h. Dark control analogues were directly kept in the dark for 2 h. After incubation periods, cells were washed with saline PBS buffer and loaded with 50 μL of MTT solution (1 mg/mL) for additional 4 h, then removed and 50 μL DMSO was added to solubilize the purple formazan crystals formed in active cells. The absorbance was measured at 570 nm using a microplate reader (FLUOstar Omega) and the IC50 values were calculated based on the inhibitory rate curves using the next the equation [drawing 2] where I represents the percentage inhibition of viability observed, Imax is the maximal inhibitory effect, IC50 is the concentration that inhibits 50% of maximal growth, C is the concentration of the treatment, and n is the slope of the semilogarithmic dose–response sigmoidal curves. The nonlinear fitting was performed using SigmaPlot 14.0 software. Two independent experiments were performed with triplicate points per concentration level (n = 3).

The next data set has as its system A2780 cells. The data set can be described thus: Dark cytotoxic screening, MTT test, 48 h. It is filed as cell-based, human. Conditions: 48 h in the dark. As to the method: as §1
Data set [1] has as its system HeLa cells. The data set can be described thus: Dark cytotoxic screening, MTT test, 48 h. The settings on record: 48 h in the dark. It is filed as cell-based, human. As to the method: as §1
Data set [2] concerns HeLa cells. More on the design: method as in doi:10.1016/j.dyepig.2022.110905. The settings on record: λexc 405 nm; cited from earlier work.
For data set [3], the system named is A375 cells. Description: Dark cytotoxic screening, MTT test, 48 h. It is filed as cell-based, human. Conditions: 48 h in the dark. As to the method:
as §1

The test system of data set [4] is A375 cells. The data set can be described thus: Photoactivation studies (phototoxicity, MTT), dark vs blue light. It counts as cell-based, human. As to the method:
as §1

Data set [5] relates to HeLa cells. The data set is described as above. It is filed as cell-based, human. As to the method:
as §1

Data set [6] deals with HeLa cells. Description: Cell uptake by confocal microscopy. The settings on record: 15 μM, 2 h incubation; for Cellular uptake: λexc 450 nm. It is filed as cell-based, human. As to the method:
HeLa cells were seeded onto Ibidi μ-slides at 10^4 cells/cm^2 in a complete medium and incubated for 24 h at 310 K and 5% CO2 in a humidified incubator. Compounds were added at indicated concentrations for 2 h. […]

Data set [7] relates to HeLa cells. The data set can be described thus: Confocal microscopy imaging after blue light irradiation. It is filed as cell-based, human. Conditions: 15 μM. As to the method:
HeLa cells were seeded onto Ibidi μ-slides at 10^4 cells/cm^2 in a complete medium and incubated for 24 h at 310 K and 5% CO2 in a humidified incubator. […] Cells were then washed with PBS twice and imaged under confocal microscopy (STELLARIS Leica Microsystems) using 405 nm excitation laser.

The mark [8] stands for this setting: hypoxia (2% O2), 1 h incubation then blue light 465 nm, 4 mW/cm^2, 1 h, read-out: IC50 A375 blue light.
The mark [9] stands for this setting: hypoxia (2% O2), dark, read-out: IC50 A375 dark.
The mark [10] stands for this setting: normoxia (21% O2), 1 h incubation then blue light 465 nm, 4 mW/cm^2, 1 h, read-out: IC50 A375 blue light.
The mark [11] stands for this setting: normoxia (21% O2), dark 2 h, read-out: IC50 A375 dark.
[12] abbreviates: hypoxia (2% O2), 1 h incubation then blue light 465 nm, 4 mW/cm^2, 1 h, read-out: IC50 HeLa blue light.
Setting [13] is: hypoxia (2% O2), dark, read-out: IC50 HeLa dark.
The mark [14] stands for this setting: normoxia (21% O2), 1 h incubation then blue light 465 nm, 4 mW/cm^2, 1 h, read-out: IC50 HeLa blue light.
[15] abbreviates: normoxia (21% O2), dark 2 h, read-out: IC50 HeLa dark.

For `[NH2][Pt]([NH2])([Cl])[Cl]` [CDDP, cisplatin, reference compound], the IC50 was 7.8 ± 0.4 µM in the data set on CHO cells, 1.9 ± 0.1 µM with A2780 cells and 21 ± 2 µM in the data set on HeLa cells [1].

Consider `CN(C)c1ccc(-n2cc(-c3nc4ccccc4s3)nn2)cc1` [L5], for which the Intracellular distribution result in the data set with HeLa cells [2] was “evenly distributed around cell cytoplasm but not within nuclei”.

Consider `Cc1ccc(-n2cc(-c3nc4ccccc4s3)nn2)cc1.O=S(=O)([O-])C(F)(F)F.O=S(=O)([O-])C(F)(F)F.[Ru+2].c1cnc2c(c1)ccc1cccnc12.c1cnc2c(c1)ccc1cccnc12` [Ru1, [Ru(phen)2(L1)][OTf]2], for which the 50% inhibitory concentration (IC50) with CHO cells is over 100 µM; in the data set with A2780 cells, over 100 µM; in the data set with A375 cells [3], over 100 µM; with HeLa cells [1], over 100 µM; in the data set with A375 cells [4] (setting [8]) it was 66.9 ± 6.1 µM; in the data set with A375 cells [4] (setting [9]) it was over 500 µM. In addition, the IC50 is 20.6 ± 1.5 µM in the data set on A375 cells [4] (setting [10]); over 500 µM in the data set with A375 cells [4] (setting [11]); 70.2 ± 5 µM in the data set on HeLa cells [5] (setting [12]); over 500 µM with HeLa cells [5] (setting [13]); 48 ± 3.4 µM with HeLa cells [5] (setting [14]); over 500 µM in the data set with HeLa cells [5] (setting [15]). Also, the “P.I. A375 (IC50 dark/IC50 465 nm)” value is recorded as over 7.5 in the data set on A375 cells [4] (hypoxia (2% O2)) and over 24.4 in the data set on A375 cells [4] (normoxia). Also, the “P.I. HeLa (IC50 dark/IC50 465 nm)” value is given as over 7.1 in the data set on HeLa cells [5] (hypoxia (2% O2)) and over 10.4 in the data set on HeLa cells [5] (normoxia).

With `FC(F)(F)c1ccc(-n2cc(-c3nc4ccccc4s3)nn2)cc1.O=S(=O)([O-])C(F)(F)F.O=S(=O)([O-])C(F)(F)F.[Ru+2].c1cnc2c(c1)ccc1cccnc12.c1cnc2c(c1)ccc1cccnc12` [Ru3, [Ru(phen)2(L3)][OTf]2], the IC50 was over 100 µM with CHO cells; over 100 µM in the data set with A2780 cells; over 100 µM in the data set with A375 cells [3]; over 100 µM in the data set on HeLa cells [1]; over 100 µM in the data set with A375 cells [4] (setting [8]); over 500 µM in the data set on A375 cells [4] (setting [9]). Also, the IC50 in the data set with A375 cells [4] (setting [10]) was 73.5 ± 4.3 µM; with A375 cells [4] (setting [11]), over 500 µM; with HeLa cells [5] (setting [12]), 85.2 ± 4.4 µM; in the data set with HeLa cells [5] (setting [13]), over 500 µM; in the data set with HeLa cells [5] (setting [14]), 73.5 ± 4.2 µM; with HeLa cells [5] (setting [15]) it was over 500 µM. In addition, the “P.I. A375 (IC50 dark/IC50 465 nm)” value in the data set with A375 cells [4] (normoxia) is over 6.8. In addition, the “P.I. HeLa (IC50 dark/IC50 465 nm)” value with HeLa cells [5] (hypoxia (2% O2)) is recorded as over 5.9; with HeLa cells [5] (normoxia) it was over 6.8.

With `O=S(=O)([O-])C(F)(F)F.O=S(=O)([O-])C(F)(F)F.O=[N+]([O-])c1ccc(-n2cc(-c3nc4ccccc4s3)nn2)cc1.[Ru+2].c1cnc2c(c1)ccc1cccnc12.c1cnc2c(c1)ccc1cccnc12` [Ru4, [Ru(phen)2(L4)][OTf]2], the IC50 in the data set with CHO cells is over 100 µM; in the data set with A2780 cells, over 100 µM; with A375 cells [3], over 100 µM; with HeLa cells [1], over 100 µM; in the data set with A375 cells [4] (setting [8]), 51.9 ± 2.4 µM; in the data set on A375 cells [4] (setting [9]), over 500 µM. Further, the half-inhibitory concentration (IC50) was 18.8 ± 3.7 µM with A375 cells [4] (setting [10]); over 500 µM with A375 cells [4] (setting [11]); 41.7 ± 2.7 µM in the data set on HeLa cells [5] (setting [12]); over 500 µM with HeLa cells [5] (setting [13]); 33.8 ± 5.5 µM in the data set on HeLa cells [5] (setting [14]); over 500 µM with HeLa cells [5] (setting [15]). Also, the Intracellular distribution entry with HeLa cells [6] is “across the cytoplasm in punctate deposits”. In the data set with HeLa cells [6], the Cellular uptake result was “excellent and rapid cellular uptake”. The “P.I. A375 (IC50 dark/IC50 465 nm)” value with A375 cells [4] (hypoxia (2% O2)) is listed as over 9.6; in the data set with A375 cells [4] (normoxia), over 26.6. The “P.I. HeLa (IC50 dark/IC50 465 nm)” value was over 12.0 with HeLa cells [5] (hypoxia (2% O2)) and over 14.8 in the data set on HeLa cells [5] (normoxia).

As to `CN(C)c1ccc(-n2cc(-c3nc4ccccc4s3)nn2)cc1.O=S(=O)([O-])C(F)(F)F.O=S(=O)([O-])C(F)(F)F.[Ru+2].c1cnc2c(c1)ccc1cccnc12.c1cnc2c(c1)ccc1cccnc12` [Ru5, [Ru(phen)2(L5)][OTf]2], in the data set on HeLa cells [7] (1 h, then blue light 1 min), the “Cell cytotoxicity by imaging, 1 min irradiation” value is reported as “no cell cytotoxicity was observed”. In addition, in the data set with HeLa cells [7] (then blue light 1 h), the “Cell cytotoxicity by imaging, 1 h irradiation” value is recorded as “discernible cell damage is evident”. Also, the IC50 is over 100 µM in the data set on CHO cells; over 100 µM with A2780 cells; over 100 µM with A375 cells [3]; over 100 µM with HeLa cells [1]; over 100 µM in the data set on A375 cells [4] (setting [8]); over 500 µM in the data set with A375 cells [4] (setting [9]). Moreover, the IC50 is 27.1 ± 6.2 µM in the data set on A375 cells [4] (setting [10]); over 500 µM in the data set on A375 cells [4] (setting [11]); 57.2 ± 6.4 µM with HeLa cells [5] (setting [12]); over 500 µM in the data set on HeLa cells [5] (setting [13]); 41.8 ± 3.9 µM in the data set with HeLa cells [5] (setting [14]); over 500 µM in the data set on HeLa cells [5] (setting [15]). The Intracellular distribution entry in the data set with HeLa cells [6] is reported as “across the cytoplasm in punctate deposits”. Further, the Cellular uptake result in the data set with HeLa cells [6] is “excellent and rapid cellular uptake”. Moreover, the “P.I. A375 (IC50 dark/IC50 465 nm)” value in the data set on A375 cells [4] (normoxia) is over 18.5. The “P.I. HeLa (IC50 dark/IC50 465 nm)” value is over 8.7 in the data set on HeLa cells [5] (hypoxia (2% O2)) and over 12.0 in the data set on HeLa cells [5] (normoxia).
